{"source": "patent US20010041733A1", "about": "“Heterocyclic ester and amide hair growth compositions and uses” (GPI NIL Holdings, Inc., priority 1998, published 2001)", "key": {"FKBP12": {"molecular_target": "FKBP12 (Homo sapiens, UniProt P62942)", "sequence (P62942 whole entry)": "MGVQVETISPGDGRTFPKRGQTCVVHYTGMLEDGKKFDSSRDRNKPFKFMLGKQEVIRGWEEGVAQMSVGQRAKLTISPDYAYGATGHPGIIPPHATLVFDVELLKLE", "experiment": "Ki test procedure: inhibition of peptidyl-prolyl isomerase (rotamase) activity, chymotrypsin-coupled assay", "format": "biochemical", "settings": "substrate N-succinyl-Ala-Ala-Pro-Phe-p-nitroanilide, read-out: Ki (apparent)", "text": "The compounds used in the inventive methods and pharmaceutical compositions have an affinity for the inhibition of the prolyl peptidyl cis-trans isomerase activity of FKBP may be measured as an indicator of this affinity.\nInhibition of the peptidyl-prolyl isomerase (rotamase) activity of the compounds used in the inventive methods and pharmaceutical compositions can be evaluated by known methods described in the literature (Harding et al., Nature, […], 341:758-760; Holt et al. J. Am. Chem. Soc., 115:9923-9938). These values are obtained as apparent K1's and are presented for representative compounds in TABLE III.\nThe cis-trans isomerization of an alanine-proline bond in a model substrate, N-succinyl-Ala-Ala-Pro-Phe-p-nitroanilide, is monitored spectrophotometrically in a chymotrypsin-coupled assay, which releases para-nitroanilide from the trans form of the substrate. The inhibition of this reaction caused by the addition of different concentrations of inhibitor is determined, and the data is analyzed as a change in first-order rate constant as a function of inhibitor concentration to yield the apparerent K1, values. […]\nThe absorbance at 390 nm versus time is monitored for 90 seconds using a spectrophotometer and the rate constants are determined from the absorbance versus time data files."}, "C57 black 6 mice [1]": {"test_system": "C57 black 6 mice", "experiment": "In vivo hair generation test, Experiment A", "settings": "30 μM topical in 20% propylene glycol, 3 applications, after six weeks", "text": "Care was taken not to nick or cause abrasion to the underlaying dermal layers. The animals were in anagen growth phase, as indicated by the pinkish color of the skin. […] Hair growth was quantitated by the percent of shaved area covered by new hair growth during this time period."}, "C57 black 6 mice [2]": {"test_system": "C57 black 6 mice", "experiment": "In vivo hair generation test, Experiment B", "settings": "one micromole per milliliter topical, three times per week, 14 days after initiation of treatment", "experimental": "Care was taken not to nick or cause abrasion to the underlying dermal layers. The animals were in a […] growth phase when shaved. […] The animals were treated three times per week, and hair growth was evaluated 14 days after initiation of treatment."}}, "note": "pKi: −log10 of the molar value."}
{"molecule": "CCC(C)(C)C(=O)C(=O)N1CSC[C@@H]1C(=O)OCCCc1ccccc1", "note": "[Compound 1, 3-phenyl-1-propyl (2S)-1-(3,3-dimethyl-1,2-dioxopentyl)-2-(4-thiazolidine)carboxylate]", "values": [{"measurement": "pKi", "setting": "FKBP12", "result": 6.67}]}
{"molecule": "CCC(C)(C)C(=O)C(=O)N1CSC[C@@H]1C(=O)OCCCc1cccnc1", "note": "[Compound 2, 3-(3-pyridyl)-1-propyl (2S)-1-(3,3-dimethyl-1,2-dioxopentyl)-2-(4-thiazolidine) carboxylate]", "values": [{"measurement": "pKi", "setting": "FKBP12", "result": 6.20}]}
{"molecule": "CCC(C)(C)C(=O)C(=O)N1CCC[C@H]1C(=O)OCCCc1cccnc1", "note": "[GPI 1046]", "values": [{"measurement": "hair regrowth in the shaved area", "setting": "C57 black 6 mice [1]", "result": "essentially complete hair regrowth"}]}
{"molecule": "CCC(C)(C)C(=O)C(=O)N1CCS[C@@H]1C(=O)OCCCc1cccnc1", "note": "[GPI 1572]", "values": [{"measurement": "hair growth (relative hair growth index, FIG. 5)", "setting": "C57 black 6 mice [2]", "result": "dramatic hair growth"}]}
